# Test results taken from ChEMBL document CHEMBL5331113 (J Med Chem, 2023).
# The source made the active and inactive calls. The rule behind the calls is not given here.
# Key:
# [1] = Competitive binding affinity to humanized mouse succinate receptor 1 N181.31E/K2697.32N/G84EL1W mutant assessed as inhibition constant incubated for 5 mins in the presence of TUG-2384 by BRET assay
# Succinate receptor 1 = target: T1, Succinate receptor 1 (Homo sapiens, UniProt Q9BXA5); assay: Competitive binding affinity to N-terminal Nluc-tagged human succinate receptor 1 expressed in Flp-In-T-REx-293 cells assessed as inhibition constant incubated for 5 mins in the presence of TUG-2465 by BRET assay; assay type: cell-based
# T1 sequence (Q9BXA5 whole entry): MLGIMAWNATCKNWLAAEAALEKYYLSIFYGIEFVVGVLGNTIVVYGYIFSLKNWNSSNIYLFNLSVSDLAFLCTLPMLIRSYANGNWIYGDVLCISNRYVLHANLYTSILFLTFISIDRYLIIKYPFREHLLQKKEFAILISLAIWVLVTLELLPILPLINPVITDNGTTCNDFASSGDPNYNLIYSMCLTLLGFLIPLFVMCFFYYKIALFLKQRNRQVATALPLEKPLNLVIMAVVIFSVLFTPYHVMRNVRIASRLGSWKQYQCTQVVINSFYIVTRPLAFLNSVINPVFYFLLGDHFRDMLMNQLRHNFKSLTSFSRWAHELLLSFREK
# cells = settings: Mus musculus, HEK-293T, 5 min, read-out: pEC50 (converted)
# [2] = target: T2, Succinate receptor 1 (Homo sapiens) (UniProt Q9BXA5); settings: Flp-In-T-REx-293, filed as agonist, time 30.0 min
# T2 sequence (whole entry): T1 sequence (Q9BXA5 whole entry)
# HEK293T [3] = assay: Antagonist activity at mouse succinate receptor 1 N181.31E/K2697.32N/G84EL1W mutant expressed in HEK293T cells co-transfected with Galphai-Rluc8/Ggamma8-GFP2/Gbeta3 assessed as inhibition of succinate induced G protein activation incubated for 5 mins by luminescence based BRET assay; assay type: cell-based; settings: filed as antagonist
# HEK293T [4] = assay: Antagonist activity at mouse succinate receptor 1 N181.31E/K2697.32N mutant expressed in HEK293T cells co-transfected with Galphai-Rluc8/Ggamma8-GFP2/Gbeta3 assessed as inhibition of succinate induced G protein activation incubated for 5 mins by luminescence based BRET assay; assay type: cell-based
compound,measurement,setting,value
O=C(O)CCc1cccc(Oc2ccc(Oc3cccc4cnccc34)cc2C(F)(F)F)c1,pKi,[1],< 4.5
same,Ki,Succinate receptor 1,7.94 µM
O=C(O)CCC(=O)O [SUCCINIC ACID],EC50,cells,52.5 µM
CC(C)(C)OC(=O)NCCCCCCOc1ccc(-c2cccc(C(=O)Nc3ccccc3CC(=O)O)c2)cc1,pEC50,[2],Active
CN1CCN(Cc2ccc(-c3cccc(C(=O)Nc4ccccc4CC(=O)O)c3)cc2)CC1,Activity,HEK293T [3],Active
same,Activity,HEK293T [4],inactive
